Results reported in ChEMBL document CHEMBL4715873, “A novel synthetic acanthoic acid analogues and their cytotoxic activity in cholangiocarcinoma cells” (Bioorg Med Chem, 2021).

Key:
[1] = Cytotoxicity against human KKU-055 cells assessed as growth inhibition incubated for 48 hrs by MTT assay; assay type: functional, cell-based, KKUM055; details: KKU-M055, 48 h
[2] = Cytotoxicity against human KKU-213 cells assessed as growth inhibition incubated for 48 hrs by MTT assay; assay type: functional, cell-based, KKUM213; details: KKU-M213, 48 h
[3] = Cytotoxicity against human KKU-100 cells assessed as growth inhibition incubated for 48 hrs by MTT assay; assay type: functional, cell-based; details: KKU100, 48 h
[4] = Cytotoxicity against human KKU-214 cells assessed as growth inhibition incubated for 48 hrs by MTT assay; assay type: functional, cell-based, KKUM214; details: KKU-M214, 48 h
[5] = Cytotoxicity against human PBMC assessed as growth inhibition incubated for 48 hrs by MTT assay
[6] = Potency index, ratio of acid IC50 to compound IC50 for cytotoxicity against human KKU-213 cells assessed as growth inhibition incubated for 48 hrs by MTT assay; assay type: functional, KKUM213

C=C[C@@]1(C)CC=C2[C@@H](CC[C@@H]3[C@](C)(C(=O)OCc4cn(Cc5ccc(C)cc5)nn4)CCC[C@@]23C)C1
IC50 [1]: > 50 µM | IC50 [2]: 47 µM | IC50 [3]: > 50 µM | IC50 [4]: 39 µM

C#CCOC(=O)[C@]1(C)CCC[C@@]2(C)C3=CC[C@](C)(C=C)C[C@@H]3CC[C@H]12
IC50 [1]: 37 µM | IC50 [2]: 31 µM | IC50 [3]: > 50 µM | IC50 [5]: 71 µM | IC50 [4]: 34 µM

C=C[C@@]1(C)CC=C2[C@@H](CC[C@@H]3[C@](C)(C(=O)OCc4cn(Cc5ccc(Br)cc5)nn4)CCC[C@@]23C)C1
IC50 [1]: > 50 µM | IC50 [2]: > 50 µM | IC50 [3]: > 50 µM | IC50 [4]: > 50 µM

C=C[C@@]1(C)CC=C2[C@@H](CC[C@@H]3[C@](C)(C(=O)OCCCC)CCC[C@@]23C)C1
IC50 [1]: 49 µM | IC50 [2]: 37 µM | IC50 [3]: > 50 µM | IC50 [4]: > 50 µM

C=C[C@@]1(C)CC=C2[C@@H](CC[C@@H]3[C@](C)(C(=O)OCc4ccc(Br)cc4)CCC[C@@]23C)C1
IC50 [1]: > 50 µM | IC50 [2]: 41 µM | IC50 [3]: > 50 µM | IC50 [4]: 41 µM

C=C[C@@]1(C)CC=C2[C@@H](CC[C@@H]3[C@](C)(C(=O)OCc4ccc(Cl)cc4)CCC[C@@]23C)C1
IC50 [1]: > 50 µM | IC50 [2]: > 50 µM | IC50 [3]: > 50 µM | IC50 [4]: > 50 µM

C=C[C@@]1(C)CC=C2[C@@H](CC[C@@H]3[C@](C)(C(=O)OCc4ccccc4F)CCC[C@@]23C)C1
IC50 [1]: 47 µM | IC50 [2]: 35 µM | IC50 [3]: > 50 µM | IC50 [4]: > 50 µM

C=C[C@@]1(C)CC=C2[C@@H](CC[C@@H]3[C@](C)(C(=O)OCc4cn(Cc5ccc(OC)cc5)nn4)CCC[C@@]23C)C1
IC50 [1]: > 50 µM | IC50 [2]: > 50 µM | IC50 [3]: > 50 µM | IC50 [4]: > 50 µM

C=C[C@@]1(C)CC=C2[C@@H](CC[C@@H]3[C@](C)(C(=O)OCc4cn(Cc5ccccc5F)nn4)CCC[C@@]23C)C1
IC50 [1]: > 50 µM | IC50 [2]: > 50 µM | IC50 [3]: > 50 µM | IC50 [4]: > 50 µM

C=C[C@@]1(C)CC=C2[C@@H](CC[C@@H]3[C@](C)(C(=O)OCc4cn(Cc5ccc(Cl)cc5)nn4)CCC[C@@]23C)C1
IC50 [1]: > 50 µM | IC50 [2]: > 50 µM | IC50 [3]: > 50 µM | IC50 [4]: 39 µM

C=C[C@@]1(C)CC=C2[C@@H](CC[C@@H]3[C@](C)(C(=O)OCc4ccc(C)cc4)CCC[C@@]23C)C1
IC50 [1]: > 50 µM | IC50 [2]: > 50 µM | IC50 [3]: > 50 µM | IC50 [4]: > 50 µM

C=C[C@@]1(C)CC=C2[C@@H](CC[C@@H]3[C@](C)(C(=O)OCc4ccc(OC)cc4)CCC[C@@]23C)C1
IC50 [1]: > 50 µM | IC50 [2]: > 50 µM | IC50 [3]: > 50 µM | IC50 [4]: > 50 µM

C=C[C@@]1(C)CC=C2[C@@H](CC[C@@H]3[C@](C)(C(=O)OCc4ccc([N+](=O)[O-])cc4)CCC[C@@]23C)C1
IC50 [1]: > 50 µM | IC50 [2]: > 50 µM | IC50 [3]: > 50 µM | IC50 [4]: > 50 µM

C=C[C@@]1(C)CC=C2[C@@H](CC[C@@H]3[C@](C)(C(=O)OCc4ccc(F)cc4)CCC[C@@]23C)C1
IC50 [1]: > 50 µM | IC50 [2]: 38 µM | IC50 [3]: > 50 µM | IC50 [4]: > 50 µM

C=C[C@@]1(C)CC=C2[C@@H](CC[C@@H]3[C@](C)(C(=O)OCc4cn(CCCCCCCC)nn4)CCC[C@@]23C)C1
IC50 [1]: 48 µM | IC50 [2]: 37 µM | IC50 [3]: > 50 µM | IC50 [4]: 38 µM

C=CCOC(=O)[C@]1(C)CCC[C@@]2(C)C3=CC[C@](C)(C=C)C[C@@H]3CC[C@H]12
IC50 [1]: > 50 µM | IC50 [2]: > 50 µM | IC50 [3]: > 50 µM | IC50 [4]: > 50 µM

C=C[C@@]1(C)CC=C2[C@@H](CC[C@@H]3[C@](C)(C(=O)OCc4cn(Cc5cccc(F)c5)nn4)CCC[C@@]23C)C1
IC50 [1]: > 50 µM | IC50 [2]: > 50 µM | IC50 [3]: > 50 µM | IC50 [4]: > 50 µM

C=C[C@@]1(C)CC=C2[C@@H](CC[C@@H]3[C@](C)(C(=O)OCc4ccccc4)CCC[C@@]23C)C1
IC50 [1]: > 50 µM | IC50 [2]: > 50 µM | IC50 [3]: > 50 µM | IC50 [4]: > 50 µM

C=C[C@@]1(C)CC=C2[C@@H](CC[C@@H]3[C@](C)(C(=O)OCc4cccc(F)c4)CCC[C@@]23C)C1
IC50 [1]: 41 µM | IC50 [2]: 28 µM | IC50 [3]: > 50 µM | IC50 [5]: 163 µM | IC50 [4]: > 50 µM

C=C[C@@]1(C)CC=C2[C@@H](CC[C@@H]3[C@](C)(C(=O)OCCCCCCCC)CCC[C@@]23C)C1
IC50 [1]: > 50 µM | IC50 [2]: > 50 µM | IC50 [3]: > 50 µM | IC50 [4]: > 50 µM

C=C[C@@]1(C)CC=C2[C@@H](CC[C@@H]3[C@](C)(C(=O)OCc4cn(Cc5ccc([N+](=O)[O-])cc5)nn4)CCC[C@@]23C)C1
IC50 [1]: 33 µM | IC50 [2]: 18 µM | IC50 [3]: > 50 µM | IC50 [5]: > 200 µM | IC50 [4]: 21 µM | Ratio IC50 [6]: 8

C=C[C@@]1(C)CC=C2[C@@H](CC[C@@H]3[C@](C)(C(=O)OCc4cn(Cc5ccc(F)cc5)nn4)CCC[C@@]23C)C1
IC50 [1]: > 50 µM | IC50 [2]: > 50 µM | IC50 [3]: > 50 µM | IC50 [4]: > 50 µM

C=C[C@@]1(C)CC=C2[C@@H](CC[C@@H]3[C@](C)(C(=O)OCc4cn(Cc5ccccc5)nn4)CCC[C@@]23C)C1
IC50 [1]: 47 µM | IC50 [2]: 40 µM | IC50 [3]: > 50 µM | IC50 [4]: 41 µM

C=C[C@@]1(C)CC=C2[C@@H](CC[C@@H]3[C@](C)(C(=O)O)CCC[C@@]23C)C1
IC50 [1]: 120 µM | IC50 [2]: 149 µM | IC50 [3]: 174 µM | IC50 [4]: 168 µM

O=C(NC1=CC(=O)[C@H]2O[C@H]2[C@H]1O)c1ccccc1O [DEHYDROXYMETHYLEPOXYQUINOMICIN]
IC50 [2]: 19 µM | IC50 [4]: 19 µM
